Source: patent US20230102554A1 (GB002, INC., priority 2019, published 2023)
pIC50: −log10 of the molar value.

Experiments:
[1] = target: T1, Human PDGFRα, cytoplasmic domain (GST-PDGFRα) (Homo sapiens, UniProt P16234); experiment: Human PDGFRα biochemical inhibition assay (off-chip Mobility Shift Assay)
T1 construct: made in house

[2] = target: T2, Human PDGFRβ, cytoplasmic domain (GST-PDGFRβ) (Homo sapiens, UniProt P09619); experiment: Human PDGFRβ biochemical inhibition assay (off-chip Mobility Shift Assay)
T2 construct: made in house
T2 sequence (P09619 with tags, fused parts or gaps): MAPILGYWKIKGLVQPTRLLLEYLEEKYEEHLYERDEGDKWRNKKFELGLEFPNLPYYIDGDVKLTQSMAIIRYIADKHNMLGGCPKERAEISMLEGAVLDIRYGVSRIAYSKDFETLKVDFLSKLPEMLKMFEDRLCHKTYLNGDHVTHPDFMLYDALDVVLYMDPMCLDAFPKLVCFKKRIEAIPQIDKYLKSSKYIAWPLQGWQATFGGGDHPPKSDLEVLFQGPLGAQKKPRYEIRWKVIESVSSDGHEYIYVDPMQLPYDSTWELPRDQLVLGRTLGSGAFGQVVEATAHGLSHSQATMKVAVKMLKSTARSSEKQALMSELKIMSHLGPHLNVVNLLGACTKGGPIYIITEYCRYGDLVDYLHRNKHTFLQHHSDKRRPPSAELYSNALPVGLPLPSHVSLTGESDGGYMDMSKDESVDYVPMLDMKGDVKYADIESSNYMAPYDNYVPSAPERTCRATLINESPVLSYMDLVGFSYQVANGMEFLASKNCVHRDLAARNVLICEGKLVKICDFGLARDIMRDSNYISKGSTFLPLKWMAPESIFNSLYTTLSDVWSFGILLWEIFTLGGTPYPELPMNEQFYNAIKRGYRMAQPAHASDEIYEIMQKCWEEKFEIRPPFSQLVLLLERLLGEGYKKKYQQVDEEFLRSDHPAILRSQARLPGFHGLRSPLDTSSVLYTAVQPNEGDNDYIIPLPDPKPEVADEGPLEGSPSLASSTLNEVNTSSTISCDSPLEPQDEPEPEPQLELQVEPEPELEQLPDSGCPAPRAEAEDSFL
Summary of the method: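 GST-tagged cytoplasmic domain (aa 557-1106) from baculovirus was incubated 1 h at room temperature with compound, CSKtide, ATP at Km and Mg²⁺ in HEPES buffer, pH 7.5. Phosphorylated and unphosphorylated peptide were separated by off-chip mobility shift, and the product ratio P/(P+S) gave percent inhibition.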

T1 sequence (P16234 550-1089 T674I): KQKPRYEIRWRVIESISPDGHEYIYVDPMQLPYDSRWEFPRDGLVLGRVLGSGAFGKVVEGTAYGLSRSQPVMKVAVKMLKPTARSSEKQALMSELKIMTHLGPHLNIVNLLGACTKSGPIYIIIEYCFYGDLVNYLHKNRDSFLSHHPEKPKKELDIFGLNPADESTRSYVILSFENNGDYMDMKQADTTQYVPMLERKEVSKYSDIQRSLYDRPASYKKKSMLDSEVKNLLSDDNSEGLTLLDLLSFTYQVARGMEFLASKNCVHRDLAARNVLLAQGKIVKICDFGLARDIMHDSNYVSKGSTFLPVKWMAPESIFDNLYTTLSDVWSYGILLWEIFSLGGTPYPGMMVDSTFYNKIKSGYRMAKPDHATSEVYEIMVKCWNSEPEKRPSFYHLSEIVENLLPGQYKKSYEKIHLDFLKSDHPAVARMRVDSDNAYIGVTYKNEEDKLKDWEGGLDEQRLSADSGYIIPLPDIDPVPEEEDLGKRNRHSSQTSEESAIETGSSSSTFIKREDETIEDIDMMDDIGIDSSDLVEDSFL

## C[C@H](Nc1cnc2cnn(C)c2n1)c1cccc(NC(=O)c2cnn(CC3CC3)c2)c1 [Compound 152, (S)-1-(cyclopropylmethyl)-N-(3-(1-((1-methyl-1H-pyrazolo[3,4-b]pyrazin-6-yl)amino)ethyl)phenyl)-1H-pyrazole-4-carboxamide]
[1]
  pIC50: > 6.52
[2]
  pIC50: > 6.52

## Cc1n[nH]c2ncc(N[C@@H](C)c3cccc(NC(=O)c4ccc(C5CC5)nc4)c3)nc12 [Compound 535, (S)-6-cyclopropyl-N-(3-(1-((3-methyl-1H-pyrazolo[3,4-b]pyrazin-5-yl)amino)ethyl)phenyl)nicotinamide]
[1]
  pIC50: > 6.52
[2]
  pIC50: > 6.52

## CCn1cc2ncc(N[C@@H](C)c3cccc(NC(=O)c4cnc(C(N)=O)s4)c3)nc2n1 [Compound 365, (S)-N5-(3-(1-((2-ethyl-2H-pyrazolo[3,4-b]pyrazin-6-yl)amino)ethyl)phenyl)thiazole-2,5-dicarboxamide]
[1]
  pIC50: > 6.52
[2]
  pIC50: > 6.52

## CCn1cc2ncc(N[C@@H](C)c3cc(NC(=O)c4ccc(F)c(Cl)c4)ccc3C)nc2n1 [Compound 507, (S)-3-chloro-N-(3-(1-((2-ethyl-2H-pyrazolo[3,4-b]pyrazin-6-yl)amino)ethyl)-4-methylphenyl)-4-fluorobenzamide]
[1]
  pIC50: > 6.52
[2]
  pIC50: > 6.52

## CCn1cc2ncc(N[C@@H](C)c3cccc(NC(=O)Cc4ccc(C(F)(F)F)c(F)c4)c3)nc2n1 [Compound 628, (S)-N-(3-(1-((2-ethyl-2H-pyrazolo[3,4-b]pyrazin-6-yl)amino)ethyl)phenyl)-2-(3-fluoro-4-(trifluoromethyl)phenyl)acetamide]
[1]
  pIC50: > 6.52
[2]
  pIC50: ≤ 6.00

## Cc1cncc(C(=O)Nc2cccc([C@H](C)Nc3cnn4ccccc34)c2)c1 [Compound 20, (S)-5-methyl-N-(3-(1-(pyrazolo[1,5-a]pyridin-3-ylamino)ethyl)phenyl)nicotinamide]
[1]
  pIC50: ≤ 6.00
[2]
  pIC50: ≤ 6.00

## Cc1cc2ncc(N[C@@H](C)c3cccc(NC(=O)c4ccc(C5CC5)nc4)c3)nc2s1 [Compound 610, (S)-6-cyclopropyl-N-(3-(1-((6-methylthieno[2,3-b]pyrazin-3-yl)amino)ethyl)phenyl) nicotinamide]
[1]
  pIC50: > 6.52
[2]
  pIC50: > 6.52

## CCn1cc2ncc(N[C@@H](C)c3cccc(NC(=O)c4cnc(NC(C)=O)s4)c3)nc2n1 [Compound 370, (S)-2-acetamido-N-(3-(1-((2-ethyl-2H-pyrazolo[3,4-b]pyrazin-6-yl)amino)ethyl)phenyl)thiazole-5-carboxamide]
[1]
  pIC50: 6.00 to 6.52
[2]
  pIC50: ≤ 6.00

## CCn1cc2ncc(N[C@@H](C)c3cccc(NC(=O)c4cnc(F)c(C)c4)c3)nc2n1 [Compound 329, (S)-N-(3-(1-((2-ethyl-2H-pyrazolo[3,4-b]pyrazin-6-yl)amino)ethyl)phenyl)-6-fluoro-5-methylnicotinamide]
[1]
  pIC50: > 6.52
[2]
  pIC50: > 6.52

## CC(C)c1cc(C(=O)Nc2cccc([C@H](C)Nc3cnc4[nH]ncc4n3)c2)no1 [Compound 530, (S)-N-(3-(1-((1H-pyrazolo[3,4-b]pyrazin-5-yl)amino)ethyl)phenyl)-5-isopropylisoxazole-3-carboxamide]
[1]
  pIC50: > 6.52
[2]
  pIC50: > 6.52

## Cc1cncc(C(=O)Nc2cccc([C@H](C)Nc3cnc4[nH]nc(C)c4c3)c2)c1 [Compound 14, (S)-5-methyl-N-(3-(1-((3-methyl-1H-pyrazolo[3,4-b]pyridin-5-yl)amino)ethyl)phenyl)nicotinamide]
[1]
  pIC50: > 6.52
[2]
  pIC50: > 6.52

## CCn1cc2ncc(N[C@@H](C)c3cccc(NC(=O)Nc4cnn(C(C)C)c4)c3)nc2n1 [Compound 733, (S)-1-(3-(1-((2-ethyl-2H-pyrazolo[3,4-b]pyrazin-6-yl)amino)ethyl)phenyl)-3-(1-isopropyl-1H-pyrazol-4-yl)urea]
[1]
  pIC50: > 6.52
[2]
  pIC50: 6.00 to 6.52

## CCn1cc2ncc(N[C@@H](C)c3cc(NC(=O)Cc4ccc(C)nc4)ccc3F)nc2n1 [Compound 651, (S)-N-(3-(1-((2-ethyl-2H-pyrazolo[3,4-b]pyrazin-6-yl)amino)ethyl)-4-fluorophenyl)-2-(6-methylpyridin-3-yl) acetamide]
[1]
  pIC50: > 6.52
[2]
  pIC50: ≤ 6.00

## C[C@H](Nc1cnc2cnn(C)c2n1)c1cccc(NC(=O)c2cnc(C(F)(F)F)s2)c1 [Compound 139, (S)-N-(3-(1-((1-methyl-1H-pyrazolo[3,4-b]pyrazin-6-yl)amino)ethyl)phenyl)-2-(trifluoromethyl)thiazole-5-carboxamide]
[1]
  pIC50: > 6.52
[2]
  pIC50: > 6.52

## C[C@H](Nc1cnc2cnn(C)c2n1)c1cccc(NC(=O)c2cnc3c(c2)CCCO3)c1 [Compound 70, (S)-N-(3-(1-((1-methyl-1H-pyrazolo[3,4-b]pyrazin-6-yl)amino)ethyl)phenyl)-3,4-dihydro-2H-pyrano[2,3-b] pyridine-6-carboxamide]
[1]
  pIC50: > 6.52
[2]
  pIC50: > 6.52

## CCn1cc2ncc(N[C@@H](C)c3cccc(NC(=O)c4cnc(N5CCCC5)s4)c3)nc2n1 [Compound 326, (S)-N-(3-(1-((2-ethyl-2H-pyrazolo[3,4-b]pyrazin-6-yl)amino)ethyl)phenyl)-2-(pyrrolidin-1-yl)thiazole-5-carboxamide]
[1]
  pIC50: > 6.52
[2]
  pIC50: > 6.52

## Cc1cc(C(=O)Nc2cccc([C@H](C)Nc3cnc4cnn(C)c4n3)c2)cnc1CN1CCOCC1 [Compound 239, (S)-5-methyl-N-(3-(1-((1-methyl-1H-pyrazolo[3,4-b]pyrazin-6-yl)amino)ethyl)phenyl)-6-(morpholinomethyl) nicotinamide]
[1]
  pIC50: > 6.52
[2]
  pIC50: > 6.52

## CCn1cc2ncc(N[C@@H](C)c3cc(NC(=O)Cc4ccc(C)cn4)c(F)cc3F)nc2n1 [Compound 724, (S)-N-(5-(1-((2-ethyl-2H-pyrazolo[3,4-b]pyrazin-6-yl)amino)ethyl)-2,4-difluorophenyl)-2-(5-methylpyridin-2-yl)acetamide]
[1]
  pIC50: > 6.52
[2]
  pIC50: ≤ 6.00

## C[C@H](Nc1cnc2cnn(C)c2n1)c1cccc(NC(=O)Nc2ccccc2)c1 [Compound 729, (S)-1-(3-(1-((1-methyl-1H-pyrazolo[3,4]pyrazin-6-yl)amino)ethyl)phenyl)-3-phenylurea]
[1]
  pIC50: > 6.52
[2]
  pIC50: > 6.52

## CCn1cc2ncc(N[C@@H](C)c3cc(NC(=O)Cc4cc(F)ccc4F)ccc3C)nc2n1 [Compound 702, (S)-2-(2,5-difluorophenyl)-N-(3-(1-((2-ethyl-2H-pyrazolo[3,4-b]pyrazin-6-yl)amino)ethyl)-4-methylphenyl)acetamide]
[1]
  pIC50: > 6.52
[2]
  pIC50: > 6.52

## CCn1cc2ncc(N[C@@H](C)c3cccc(NC(=O)c4cnc(N(C)C)s4)c3)nc2n1 [Compound 340, (S)-2-(dimethylamino)-N-(3-(1-((2-ethyl-2H-pyrazolo[3,4-b]pyrazin-6-yl)amino)ethyl)phenyl)thiazole-5-carboxamide]
[1]
  pIC50: > 6.52
[2]
  pIC50: > 6.52

## Cc1cncc(C(=O)Nc2cccc([C@H](C)Nc3cncc4[nH]ncc34)c2)c1 [Compound 749, (S)-N-(3-(1-((1H-pyrazolo[3,4-c]pyridin-4-yl)amino)ethyl)phenyl)-5-methylnicotinamide]
[1]
  pIC50: ≤ 6.00
[2]
  pIC50: ≤ 6.00

## CCn1cc2ncc(N[C@@H](C)c3cc(NC(=O)Cc4cncc(C(F)(F)F)c4)ccc3F)nc2n1 [Compound 685, (S)-N-(3-(1-((2-ethyl-2H-pyrazolo[3,4-b]pyrazin-6-yl)amino)ethyl)-4-fluorophenyl)-2-(5-(trifluoromethyl)pyridin-3-yl) acetamide]
[1]
  pIC50: > 6.52
[2]
  pIC50: 6.00 to 6.52

## Cc1cncc(NC(=O)c2cccc([C@H](C)Nc3cnc4cnn(C)c4n3)c2)c1 [Compound 744, (S)-3-(1-((1-methyl-H-pyrazolo[3,4-b]pyrazin-6-yl)amino)ethyl)-N-(5-methylpyridin-3-yl)benzamide]
[1]
  pIC50: > 6.52
[2]
  pIC50: ≤ 6.00

## CCn1cc(C(=O)Nc2ccc(F)c([C@H](C)Nc3cnc4cn(CC)nc4n3)c2)cn1 [Compound 310, (S)-1-ethyl-N-(3-(1-((2-ethyl-2H-pyrazolo[3,4-b]pyrazin-6-yl)amino)ethyl)-4-fluorophenyl)-1H-pyrazole-4-carboxamide]
[1]
  pIC50: > 6.52
[2]
  pIC50: > 6.52

## Cc1cncc(C(=O)Nc2cccc([C@H](C)Nc3cnc4ccc(C)cc4n3)c2)c1 [Compound 38, (S)-5-methyl-N-(3-(1-((7-methylquinoxalin-2-yl)amino)ethyl)phenyl)nicotinamide]
[1]
  pIC50: > 6.52
[2]
  pIC50: > 6.52

## CCn1cc2ncc(N[C@@H](C)c3cccc(NC(=O)Cc4cc(C)c(C)cn4)c3)nc2n1 [Compound 693, (S)-2-(4,5-dimethylpyridin-2-yl)-N-(3-(1-((2-ethyl-2H-pyrazolo[3,4-b]pyrazin-6-yl)amino)ethyl)phenyl)acetamide]
[1]
  pIC50: > 6.52
[2]
  pIC50: ≤ 6.00

## CCn1cc2ncc(N[C@@H](C)c3cccc(NC(=O)c4cc(Cl)c(Cl)s4)c3)nc2n1 [Compound 357, (S)-4,5-dichloro-N-(3-(1-((2-ethyl-2H-pyrazolo[3,4-b]pyrazin-6-yl)amino)ethyl)phenyl)thiophene-2-carboxamide]
[1]
  pIC50: > 6.52
[2]
  pIC50: > 6.52

## CCn1cc2ncc(N[C@@H](C)c3cccc(NC(=O)c4cnc(C(C)C)s4)c3)nc2n1 [Compound 349, (S)-N-(3-(1-((2-ethyl-2H-pyrazolo[3,4-b]pyrazin-6-yl)amino)ethyl)phenyl)-2-isopropylthiazole-5-carboxamide]
[1]
  pIC50: > 6.52
[2]
  pIC50: > 6.52

## CCn1cc2ncc(N[C@@H](C)c3cc(NC(=O)c4cnc(C(F)(F)F)s4)ccc3F)nc2n1 [Compound 308, (S)-N-(3-(1-((2-ethyl-2H-pyrazolo[3,4-b]pyrazin-6-yl)amino)ethyl)-4-fluorophenyl)-2-(trifluoromethyl)thiazole-5-carboxamide]
[1]
  pIC50: > 6.52
[2]
  pIC50: > 6.52

## C[C@H](Nc1cnc2cnn(C)c2n1)c1cccc(NC(=O)c2cncc(C(C)(C)O)c2)c1 [Compound 107, (S)-5-(2-hydroxypropan-2-yl)-N-(3-(1-((1-methyl-1H-pyrazolo[3,4-b]pyrazin-6-yl)amino)ethyl)phenyl) nicotinamide]
[1]
  pIC50: > 6.52
[2]
  pIC50: > 6.52
